This note sets out measurements from patent publication US20230286956A1 (DUKSUNG WOMEN'S UNIVERSITY INDUSTRY-ACADEMIC COOPERATION …, priority 2020, published 2023).

The subject of the test is wild-type red mold strain GZ3639. The test can be described thus: Inhibition of spore germination / reactive oxygen species generation through NOX enzyme inhibition in red mold. Format: cell-based. To be noted: 24 h, read-out: IC50 (µM), compound concentration at which the spore germination inhibition rate was 50%. How it is done: When NADPH oxidase (NOX), which is involved in the generation of reactive oxygen species in red mold, is inhibited, normal mycelial growth is inhibited, abnormal form of monocyclic conidia is formed, and germination is inhibited. The abnormal phenotype caused by the reduction of reactive oxygen species in red mold can be easily observed under an optical microscope. Through this, the ability to inhibit generation of reactive oxygen species through NOX inhibition was evaluated.
Specifically, for the evaluation of compound activity, 0.1 mM of the compound was added to a minimum medium (MM20) spore suspension diluted to ⅕. Spores ([…]) of wild-type red mold strain GZ3639 were inoculated into the medium and cultured at 25° C. for 24 h, followed by microscopic observation. Compounds having a germination inhibition rate and microcycle conidiation to be 50% or more of those in normal germination were selected, and their activities were evaluated at concentrations of 50 µM, 25 µM, and 10 µM. At this time, the activity of substances having a germination inhibition rate of 95% at 10 µM was further evaluated at concentrations of 5 µM, 1 µM, 0.5 µM, and 0.1 µM. Based on the result of this evaluation, the compound concentration (inhibitory concentration 50%, IC50) at which the spore germination inhibition rate was 50% was determined.
On to `CN1C(=[Se])N(c2ccc(Cl)cc2)C(=O)/C1=C\c1cccnc1` [Compound 39, 3-(4-chlorophenyl)-1-methyl-5-(pyridine-3-ylmethylene)-2-selenoxoimidazolidine-4-on], for which the IC50 was determined as 27 µM. As to `CCc1ccc(N2C(=O)/C(=C\c3ccc(N4CCCCC4)cc3)N(C)C2=[Se])cc1` [Compound 28, 3-(4-ethylphenyl)-1-methyl-5-(4-(piperidine-1-yl)benzylidene)-2-selenoxoimidazolidine-4-on], the IC50 was 11 µM. In the case of `CN1C(=[Se])N(c2ccc(Cl)cc2)C(=O)/C1=C\c1cc(O)cc(O)c1` [Compound 38, 3-(4-chlorophenyl)-5-(3,5-dihydroxybenzylidene)-1-methyl-2-selenoxoimidazolidine-4-on] it was 56 µM; in that of `CCCCCCN1C(=O)/C(=C\c2ccc(N3CCOCC3)cc2)N(C)C1=[Se]` [Compound 63, 3-hexyl-1-methyl-5-(4-morpholinobenzylidene)-2-selenoxoimidazolidine-4-on], 0.5 µM.

Turning to `CCCCCCN1C(=O)/C(=C\c2ccc(NCCOCCF)cc2)N(C)C1=[Se]` [Compound 67, 5-(4-((2-(2-fluoroethoxy)ethyl)amino)benzylidene)-3-hexyl-1-methyl-2-selenoxoimidazolidine-4-on], the IC50 is 0.45 µM. As for `CN1C(=[Se])N(C2CCCC2)C(=O)/C1=C\c1ccc(N(C)C)cc1` [Compound 70, 3-cyclopentyl-5-(4-(dimethylamino)benzylidene)-1-methyl-2-selenoxoimidazolidine-4-on], the figure is 26 µM; as for `CCc1ccc(N2C(=O)/C(=C\c3ccc(O)c(O)c3)N(Cc3ccccc3)C2=[Se])cc1` [Compound 109, 1-benzyl-5-(3,4-dihydroxybenzylidene)-3-(4-ethylphenyl)-2-selenoxoimidazolidine-4-on], 29 µM.

Consider `CCN1C(=[Se])N(c2ccccc2)C(=O)/C1=C\c1cccc(O)c1O` [Compound 96, 5-(2,3-dihydroxybenzylidene)-1-ethyl-3-phenyl-2-selenoxoimidazolidine-4-on], for which the IC50 worked out at 44 µM. As for `O=C1/C(=C\c2ccc(O)c(O)c2)N(Cc2ccccc2)C(=[Se])N1c1ccc(Cl)cc1` [Compound 112, 1-benzyl-3-(4-chlorophenyl)-5-(3,4-dihydroxybenzylidene)-2-selenoxoimidazolidine-4-on], the figure is 31 µM; as for `CCN1C(=[Se])N(c2ccccc2)C(=O)/C1=C\c1ccc(O)cc1O` [Compound 95, 5-(2,4-dihydroxybenzylidene)-1-ethyl-3-phenyl-2-selenoxoimidazolidine-4-on], 22 µM; as for `CN1C(=[Se])N(c2ccc(Cl)cc2)C(=O)/C1=C\c1cccc(O)c1O` [Compound 36, 3-(4-chlorophenyl)-5-(2,3-dihydroxybenzylidene)-1-methyl-2-selenoxoimidazolidine-4-on], 46 µM.

In the case of `CN1C(=[Se])N(CCCN2CCOCC2)C(=O)/C1=C\c1ccc(Cl)cc1` [Compound 85, 5-(4-chlorobenzylidene)-1-methyl-3-(3-morpholinopropyl)-2-selenoxoimidazolidine-4-on], the IC50 amounted to 5 µM. In the case of `CCc1ccc(N2C(=O)/C(=C\c3ccc(O)cc3O)N(C)C2=[Se])cc1` [Compound 24, 5-(2,4-dihydroxybenzylidene)-3-(4-ethylphenyl)-1-methyl-2-selenoxoimidazolidine-4-on], the IC50 amounted to 14 µM. As for `CCCCCCN1C(=O)/C(=C\c2cc(O)cc(O)c2)N(C)C1=[Se]` [Compound 62, 5-(3,5-dihydroxybenzylidene)-3-hexyl-1-methyl-2-selenoxoimidazolidine-4-on], the figure is 5 µM; as for `Cc1ccc(N2C(=O)/C(=C\c3cccc(O)c3O)N(C)C2=[Se])cc1` [Compound 11, 5-(2,3-dihydroxybenzylidene)-1-methyl-3-(4-tolyl)-2-selenoxoimidazolidine-4-on], 46 µM; as for `O=C1/C(=C\c2cccc(O)c2O)N(Cc2ccccc2)C(=[Se])N1c1ccc(Cl)cc1` [Compound 111, 1-benzyl-3-(4-chlorophenyl)-5-(2,3-dihydroxybenzylidene)-2-selenoxoimidazolidine-4-on], 26 µM.

For `CN1C(=[Se])N(C2CCCC2)C(=O)/C1=C\c1cccc(O)c1O` [Compound 69, 3-cyclopentyl-5-(2,3-dihydroxybenzylidene)-1-methyl-2-selenoxoimidazolidine-4-on], the IC50 turned out to be 14 µM. In the case of `CN1C(=[Se])N(CCc2ccccc2)C(=O)/C1=C\c1ccc(N2CCOCC2)cc1` [Compound 52, 1-methyl-5-(4-morpholinobenzylidene)-3-phenethyl-2-selenoxoimidazolidine-4-on] it was 3.5 µM; in that of `CCc1ccc(N2C(=O)/C(=C\c3cccnc3)N(C)C2=[Se])cc1` [Compound 31, 3-(4-ethylphenyl)-1-methyl-5-(pyridine-3-ylmethylene)-2-selenoxoimidazolidine-4-on], 30 µM; in that of `CCCCCCN1C(=O)/C(=C\c2cccc(O)c2O)N(C)C1=[Se]` [Compound 60, 5-(2,3-dihydroxybenzylidene)-3-hexyl-1-methyl-2-selenoxoimidazolidine-4-on], 6 µM.

`CN1C(=[Se])N(c2ccc(Cl)cc2)C(=O)/C1=C\c1ccc(O)c(O)c1` [Compound 37, 3-(4-chlorophenyl)-5-(3,4-dihydroxybenzylidene)-1-methyl-2-selenoxoimidazolidine-4-on]: the IC50 came to 20 µM.

On to `CN1C(=[Se])N(C2CCCCC2)C(=O)/C1=C\c1cccc(O)c1O` [Compound 56, 3-cyclohexyl-5-(2,3-dihydroxybenzylidene)-1-methyl-2-selenoxoimidazolidine-4-on], for which the IC50 amounted to 18 µM. Take `CN1C(=[Se])N(c2ccc(F)cc2)C(=O)/C1=C\c1ccc(N(C)C)cc1` [Compound 75, 5-(4-(dimethylamino)benzylidene)-3-(4-fluorophenyl)-1-methyl-2-selenoxoimidazolidine-4-on]: the IC50 came to 23 µM.

As to `O=C1/C(=C\c2cc(O)cc(O)c2)N(Cc2ccccc2)C(=[Se])N1c1ccccc1` [Compound 107, 1-benzyl-5-(3,5-dihydroxybenzylidene)-3-phenyl-2-selenoxoimidazolidine-4-on], the IC50 amounted to 23 µM.

As for `CCCCCN1C(=O)/C(=C\c2ccc(O)cc2O)N(C)C1=[Se]` [Compound 93, 5-(2,4-dihydroxybenzylidene)-1-methyl-3-pentyl-2-selenoxoimidazolidine-4-on], the IC50 turned out to be 2.9 µM. Regarding `CN1C(=[Se])N(c2ccccc2)C(=O)/C1=C\c1ccc(N(C)C)cc1` [Compound 3, 5-(4-(dimethylamino)benzylidene)-1-methyl-3-phenyl-2-selenoxoimidazolidine-4-on], the IC50 is 26 µM. As for `CCc1ccc(N2C(=O)/C(=C\c3ccc(O)cc3O)N(Cc3ccccc3)C2=[Se])cc1` [Compound 108, 1-benzyl-5-(2,4-dihydroxybenzylidene)-3-(4-ethylphenyl)-2-selenoxoimidazolidine-4-on], the figure is 22 µM; as for `CN1C(=[Se])N(C2CCCCC2)C(=O)/C1=C\c1ccc(O)cc1O` [Compound 55, 3-cyclohexyl-5-(2,4-dihydroxybenzylidene)-1-methyl-2-selenoxoimidazolidine-4-on], 1 µM; as for `CCc1ccc(N2C(=O)/C(=C\c3ccc(Br)cc3)N(C)C2=[Se])cc1` [Compound 29, 5-(4-bromobenzylidene)-3-(4-ethylphenyl)-1-methyl-2-selenoxoimidazolidine-4-on], 11 µM.

Regarding `CN1C(=[Se])N(CCCCCF)C(=O)/C1=C\c1ccc(O)cc1O` [Compound 89, 5-(2,4-dihydroxybenzylidene)-3-(5-fluoropentyl)-1-methyl-2-selenoxoimidazolidine-4-on], the IC50 came out at 13 µM. In the case of `Cc1ccc(N2C(=O)/C(=C\c3cccnc3)N(C)C2=[Se])cc1` [Compound 19, 1-methyl-5-(pyridine-3-ylmethylene)-2-selenoxo-3-(4-tolyl)imidazolidine-4-on] it was 41 µM; in that of `CCc1ccc(N2C(=O)/C(=C\c3ccc(Br)cc3)N(CC)C2=[Se])cc1` [Compound 101, 5-(4-bromobenzylidene)-1-ethyl-3-(4-ethylphenyl)-2-selenoxoimidazolidine-4-on], 45 µM; in that of `CCc1ccc(N2C(=O)/C(=C\c3cc(O)cc(O)c3)N(Cc3ccccc3)C2=[Se])cc1` [Compound 110, 1-benzyl-5-(3,5-dihydroxybenzylidene)-3-(4-ethylphenyl)-2-selenoxoimidazolidine-4-on], 23 µM.

Regarding `O=C1/C(=C\c2cccc(O)c2O)N(Cc2ccccc2)C(=[Se])N1c1ccccc1` [Compound 104, 1-benzyl-5-(2,3-dihydroxybenzylidene)-3-phenyl-2-selenoxoimidazolidine-4-on], the IC50 was 23 µM. As for `Cc1ccc(N2C(=O)/C(=C\c3ccc(N4CCCC4)cc3)N(C)C2=[Se])cc1` [Compound 17, 1-methyl-5-(4-pyrrolidine-1-yl)benzylidene-2-selenoxo-3-(4-tolyl)imidazolidine-4-on], the IC50 came out at 11 µM. As for `CN1C(=[Se])N(C2CCCCC2)C(=O)/C1=C\c1cc(O)cc(O)c1` [Compound 58, 3-cyclohexyl-5-(3,5-dihydroxybenzylidene)-1-methyl-2-selenoxoimidazolidine-4-on], the figure is 18 µM; as for `CN1C(=[Se])N(C2CCCCC2)C(=O)/C1=C\c1ccc(N(C)C)cc1` [Compound 57], 46 µM.
